How the values were obtained:
PA2801 = molecular target: T1, PA2801 (Pseudomonas aeruginosa, UniProt Q9I042); assay: DTNB assay on clarified lysate, empty-vector lysate control; type: biochemical; conditions: 0.2 mM substrate, 100 mM triethanolamine pH 8, 25 °C, 0.4 mM DTNB
T1 construct: full-length in pET29a, expressed in E. coli BL21(DE3), clarified lysate
T1 sequence (Q9I042 1-134): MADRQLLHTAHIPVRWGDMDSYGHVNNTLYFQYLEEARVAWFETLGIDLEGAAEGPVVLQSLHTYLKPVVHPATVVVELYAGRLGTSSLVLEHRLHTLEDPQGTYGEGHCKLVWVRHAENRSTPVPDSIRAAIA

YbdB = molecular target: T2, YbdB (Escherichia coli, UniProt P0A8Y8); assay: as above; type: biochemical; conditions: 0.2 mM substrate, 100 mM triethanolamine pH 8, 25 °C, 0.4 mM DTNB
T2 construct: gene entH; full-length in pET29a, expressed in E. coli BL21(DE3), clarified lysate
T2 sequence (P0A8Y8 1-137): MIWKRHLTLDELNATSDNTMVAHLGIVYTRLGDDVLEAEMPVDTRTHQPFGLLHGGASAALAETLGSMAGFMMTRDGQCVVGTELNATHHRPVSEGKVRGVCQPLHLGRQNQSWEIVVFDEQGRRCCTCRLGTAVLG

CC(O)CC(=O)SCCNC(=O)CCNC(=O)[C@H](O)C(C)(C)COP(=O)(O)OP(=O)(O)OC[C@H]1O[C@@H](n2cnc3c(N)ncnc32)[C@H](O)[C@@H]1OP(=O)(O)O (mixture of isomers) [DLBH CoA, DL-β-hydroxybutyryl CoA]
DTNB assay on clarified lysate, empty-vector lysate control (PA2801): PA2801 was found to have activity towards the aliphatic CoA esters: DLBH CoA

CC(C)(COP(=O)(O)OP(=O)(O)OC[C@H]1O[C@@H](n2cnc3c(N)ncnc32)[C@H](O)[C@@H]1OP(=O)(O)O)[C@@H](O)C(=O)NCCC(=O)NCCSC(=O)c1ccccc1 [Bz CoA, Benzoyl CoA]
DTNB assay on clarified lysate, empty-vector lysate control (YbdB): YbdB was found to only have activity towards Bz CoA and nHD CoA

CC(C)(COP(=O)(O)OP(=O)(O)OC[C@H]1O[C@@H](n2cnc3c(N)ncnc32)[C@H](O)[C@@H]1OP(=O)(O)O)[C@@H](O)C(=O)NCCC(=O)NCCSC(=O)C1CCCCC1 [CHC CoA, cyclohexanecarboxylic acid coenzyme A]
DTNB assay on clarified lysate, empty-vector lysate control (PA2801): despite activity being found with CHC CoA, no activity was found with CHC-NAC

CCCCCCCCCCCCCCCCC(=O)SCCNC(=O)CCNC(=O)[C@H](O)C(C)(C)COP(=O)(O)OP(=O)(O)OC[C@H]1O[C@@H](n2cnc3c(N)ncnc32)[C@H](O)[C@@H]1OP(=O)(O)O [nHD CoA, n-heptadecanoyl CoA]
DTNB assay on clarified lysate, empty-vector lysate control (YbdB): YbdB was found to only have activity towards Bz CoA and nHD CoA
